Measured values: PubChem BioAssay AID651689 (The Scripps Research Institute Molecular Screening Center, 2012)
pEC50: −log10 of the molar value. Calls of active or inactive are those of the source. The rule behind the calls is not given here.

Biological target: Mu-type opioid receptor (Homo sapiens) (UniProt P35372)
Test: mu opioid receptor agonists, OPRM1-only line – cell-based, luminescence, dose response, counter-screen for OPRM1-OPRD1 heterodimer activator project, late-stage follow-up (AID 651689)
Conditions: luminescence activation counterscreen

Sequence of Mu-type opioid receptor (Homo sapiens) (P35372 whole entry, looked up): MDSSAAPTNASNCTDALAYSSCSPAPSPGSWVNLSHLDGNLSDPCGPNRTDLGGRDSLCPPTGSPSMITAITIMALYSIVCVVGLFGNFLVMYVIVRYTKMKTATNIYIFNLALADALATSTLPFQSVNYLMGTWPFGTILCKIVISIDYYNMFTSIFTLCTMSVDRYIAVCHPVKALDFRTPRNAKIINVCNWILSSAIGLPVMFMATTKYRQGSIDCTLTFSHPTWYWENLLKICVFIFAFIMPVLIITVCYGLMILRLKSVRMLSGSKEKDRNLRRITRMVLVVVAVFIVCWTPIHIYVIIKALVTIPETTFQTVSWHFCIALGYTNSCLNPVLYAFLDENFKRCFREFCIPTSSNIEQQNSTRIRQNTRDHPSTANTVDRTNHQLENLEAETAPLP

Structure (SMILES)	EC50	pEC50
CCOC(=O)C1(CCCc2ccccc2)CCN(Cc2cnn(C)c2)CC1	> 40 µM (inactive)	–
CCOC(=O)C1(CCOc2ccccc2)CCN(Cc2cccn2-c2cccnc2)CC1	inactive	–
CCOC(=O)C1(CCc2ccccc2)CCN(Cc2ccc(OC(C)C)c(C#N)c2)CC1	> 40 µM (inactive)	–
CCOC(=O)C1(CCOc2ccccc2)CCN(Cc2ccc(O)c(OC)c2)CC1	> 40 µM (inactive)	–
CCOC(=O)C1(CCc2ccccc2)CCN(Cc2ccccc2C)CC1	inactive	–
CCOC(=O)C1(Cc2ccccc2)CCN(Cc2cccn2-c2cccnc2)CC1	> 40 µM (inactive)	–
CCOC(=O)C1(CC2CCCCO2)CCN(Cc2c(C)cc(C)cc2-n2cccn2)CC1 (stereo unspecified)	–	5.13
CCOC(=O)C1(CCc2ccccc2)CCN(Cc2ccc(NC(C)=O)cc2)CC1	inactive	–
CCOC(=O)C1(Cc2ccccc2)CCN(Cc2cccn2-c2nccs2)CC1	> 40 µM (inactive)	–
CCOC(=O)C1(CCc2ccccc2)CCN(Cc2cc(C)cc(C)c2)CC1	> 40 µM (inactive)	–
OCC1(CCc2ccccc2)CCN(Cc2cc(F)ccc2-n2cccn2)CC1	> 40 µM (inactive)	–
